Legend:
wheat seeds = test: Seed soak screen (Example 1, Step 1, Experiments 1-4); assay type: in vivo
Method: The seeds are rinsed in sterile distilled water and then soaked in a herbicide concentration for a set period of time, as described below. Sets of twenty-five seeds are placed into 25 ml of the herbicide solution described below in a sterile 100×15 mm plastic petri dish and soaked for the designated time. The seeds are rinsed with water, dried with paper towels and planted (25 seeds/flat) approximately ½″ deep in 6×8 inch peat flats containing a moist, sterile, artificial soil, Metro Mix 350™ (Grace Company, Cambridge, Mass.). The treatments are evaluated at four weeks after treatment. The herbicides, rates and time periods evaluated are described below:
Each treatment is replicated four times.
Each treatment is replicated two times.
The protocol is as described above except that 35 seeds are soaked per petri dish; 25 seeds are still planted per flat. This experiment is repeated twice.

[1] = system: wheat embryos (M3 of FS1-FS4, Fidel); test: M3 Plant Screen: In vitro (excised embryos cultured on herbicide medium); assay type: cell-based
Method: M3 plants from the four initial plant selections (labelled FS1, FS2, FS3 and FS4) are screened for PURSUIT™ resistance in vitro. M3 seeds from each mature infloresence of these initial M2 mutants are disinfested in 70% EtOH for 30 seconds followed by disinfestation in 50% solution containing 2.625% sodium hypochlorite (as described above) for 20 minutes under vaccuum with gentle agitation provided by a stir plate. The seeds are soaked in sterile distilled water in 100×5 mm sterile plastic petri dishes for 20-24 hours after which the embryos are excised and cultured onto medium containing either 10^−4, 10^−5, or 10^−6 M PURSUIT™. […] Embryo ratings are taken at either two and one-half or three weeks after culture initiation.

[2] = system: testcross progeny Fidel x (Fidel/FS1-FS4); test: Genetic Condition Studies Experiment 3, testcrosses back to Fidel; assay type: in vivo, wheat; conditions: out of 49 test-cross progeny sprayed; 200 g/ha; rated three and one-half weeks later
Description: Experiment 3: Testcrosses of the F1 hybrids (described in Experiment 1) back to Fidel are sprayed with 200 g/ha of PURSUIT™. The following testcrosses are planted in 6 inch azalea pots in Metro Mix 350™. The number of pots planted per cross is indicated by the number after the cross:
Approximately one month later, the plants are sprayed (except for Fidel). PURSUIT™ (200 g/ha) is applied as previously described. The plants are rated three and one-half weeks later.

[3] = system: wheat selections FS2 and FS4 and Fidel; test: Postemergence Herbicide Tolerance, upper limits; assay type: in vivo; conditions: four weeks after treatment
Description: In this second greenhouse test, the upper limits of the mutant selections' resistance to postemergent applications of PURSUIT™ and Compound 2 are examined. M4 seed of two of the mutant selections, FS2 and FS4, and seed of Fidel are used in this experiment. Five seeds from each line are planted per pot in sterile Metro Mix 350™ in six inch Azalea pots. Immediately prior to herbicide treatment, these plants are thinned to three plants per pot. Three replicates are used per treatment (chemical & rate) for each line, and six replicates per wheat line are used as untreated controls. The plants are sprayed postemergence, 10 days after planting, with the following herbicides and rates (g/ha):
The herbicides are applied as previously described. Plant height is measured immediately prior to spraying. Plant heights are also measured at two and four weeks after treatment, and shoot fresh weights measured at seven weeks after treatment.

[4] = system: wheat selections FS1-FS4 and Fidel; test: Field Trial I; assay type: in vivo; conditions: 100 g/ha postemergent, yields 10 weeks after treatment
Method: A field study is conducted to evaluate the tolerance of the imidazolinone-resistant wheat selections, FS1-FS4, to postemergent applications of imidazolinone herbicides. The variety Fidel, from which these selections are derived, is included as a susceptible check. Because Fidel is a French winter wheat variety and unadapted to New Jersey, this test is intended to evaluate the relative effects of the herbicide treatments on grain yields rather than to measure actual yield potentials for the genotypes. Thus, yields are presented as grams/plot rather than bushels/acre or metric tons/ha.
M4 bulked seed from parental lines, FS1, FS2, FS3 and FS4 and Fidel wild-type, is used in this field trial. The trial is planted in an incomplete split plot design with the main plot as herbicide-rate combination and the split plot as genotypes. […] The plots are three meters long and 1.5 meters wide (7 rows with 7 inch spacing between rows) with approximately 25 seed planted per row. There is a one meter space between wheat lines and ten meters between replicates.
Treatments are applied at a rate of 400 L/ha with a tractor mounted sprayer. Tween 20™ is used as a surfactant at 0.25% v/v. Wheat is treated at the Z22 stage or approximately 6 inches tall. Plant height and damage ratings are taken at 3 and 6 weeks after treatment. Yields are taken 10 weeks after treatment.

[5] = Control 2 = Fidel on medium with herbicide, concentration 10^−5
[6] = Control 2 = Fidel on medium with herbicide, concentration 10^−6
[7] = Control M3 = M3 seed on medium with herbicide (footnote), section 10^−5
[8] = Control M3 = M3 seed on medium with herbicide (footnote), section 10^−6
[9] = FS1 M3 embryos, concentration 10^−5
[10] = FS1 M3 embryos, concentration 10^−6
[11] = FS2 M3 embryos, concentration 10^−5
[12] = FS2 M3 embryos, concentration 10^−6
[13] = FS3 M3 embryos, concentration 10^−5
[14] = FS3 M3 embryos, concentration 10^−6
[15] = FS4 M3 embryos, concentration 10^−5
[16] = FS4 M3 embryos, concentration 10^−6

With CCc1cnc(C2=NC(C)(C(C)C)C(=O)N2)c(C(=O)O)c1 (stereo not drawn) [PURSUIT, 5-ethyl-2-(4-isopropyl-4-methyl-5-oxo-2-imidazolin-2-yl)-nicotinic acid] as the compound, how does the “concentration that prevents the survival of potential false positives” value (wheat seeds; seed soak for 72 hours) read?
Its value is 1000 µM.

And the “concentration that prevents the survival of potential false positives” value (wheat seeds; seed soak for 96 hours)?
The value was 750 µM.

What about the “Embryo Rating D (Damaged), number of embryos” value (shortened to “Embryo Rating D (Damaged)”) [1, 5] of the same compound?
The value was 0.

And the “Embryo Rating S (Susceptible), number of embryos” value (“Embryo Rating S (Susceptible)” for short) [1, 5]?
Its value is 30.

And the “Embryo Rating T (Tolerant), number of embryos” value (“Embryo Rating T (Tolerant)” below) [1, 5]?
The value was 0.

What about the “Embryo Rating D (Damaged)” value [1, 6] of the same compound?
The value was 0.

What about the “Embryo Rating S (Susceptible)” value [1, 6] of the same compound?
Its value is 15.

And the “Embryo Rating T (Tolerant)” value [1, 6]?
The value was 0.

What about the “Ave. Shoot Height” value [1, 7] of the same compound?
Its value is 14.7 cm.

What about the “Embryo Rating D (Damaged)” value [1, 7] of the same compound?
Its value is 1.

And the “Embryo Rating S (Susceptible)” value [1, 7]?
Its value is 1.

What about the “Embryo Rating T (Tolerant)” value [1, 7] of the same compound?
The value was 27.

What about the “Range Shoot Heights” value [1, 7] of the same compound?
The value was 1-28 cm.

And the “Ave. Shoot Height” value [1, 8]?
Its value is 14.6 cm.

What about the “Embryo Rating D (Damaged)” value [1, 8] of the same compound?
The value was 0.

What about the “Embryo Rating S (Susceptible)” value [1, 8] of the same compound?
Its value is 0.

What about the “Embryo Rating T (Tolerant)” value [1, 8] of the same compound?
Its value is 15.

What about the “Range Shoot Heights” value [1, 8] of the same compound?
The value was 2-28 cm.

And the “Embryo Rating D (Damaged)” value [1, 9]?
Its value is 16.

What about the “Embryo Rating S (Susceptible)” value [1, 9] of the same compound?
Its value is 42.

What about the “Embryo Rating T (Tolerant)” value [1, 9] of the same compound?
The value was 21.

And the “Range Shoot Heights” value [1, 9]?
The value was 0-1.5 cm.

And the “Ave. Shoot Height” value [1, 10]?
Its value is 9.1 cm.

What about the “Embryo Rating D (Damaged)” value [1, 10] of the same compound?
The value was 0.

What about the “Embryo Rating S (Susceptible)” value [1, 10] of the same compound?
The value was 0.

And the “Embryo Rating T (Tolerant)” value [1, 10]?
The value was 70.

And the “Range Shoot Heights” value [1, 10]?
The value was 1-22 cm.

What about the “Embryo Rating D (Damaged)” value [1, 11] of the same compound?
The value was 14.

And the “Embryo Rating S (Susceptible)” value [1, 11]?
Its value is 45.

And the “Embryo Rating T (Tolerant)” value [1, 11]?
The value was 21.

What about the “Range Shoot Heights” value [1, 11] of the same compound?
The value was 0-3.5 cm.

And the “Ave. Shoot Height” value [1, 12]?
The value was 11.4 cm.

And the “Embryo Rating D (Damaged)” value [1, 12]?
Its value is 1.

What about the “Embryo Rating S (Susceptible)” value [1, 12] of the same compound?
The value was 0.

And the “Embryo Rating T (Tolerant)” value [1, 12]?
The value was 64.

What about the “Range Shoot Heights” value [1, 12] of the same compound?
The value was 1-23 cm.

And the “Embryo Rating D (Damaged)” value [1, 13]?
Its value is 9.

What about the “Embryo Rating S (Susceptible)” value [1, 13] of the same compound?
The value was 58.

And the “Embryo Rating T (Tolerant)” value [1, 13]?
The value was 12.

What about the “Range Shoot Heights” value [1, 13] of the same compound?
Its value is 0-4.5 cm.

And the “Ave. Shoot Height” value [1, 14]?
Its value is 5.2 cm.

And the “Embryo Rating D (Damaged)” value [1, 14]?
The value was 12.

What about the “Embryo Rating S (Susceptible)” value [1, 14] of the same compound?
Its value is 22.

And the “Embryo Rating T (Tolerant)” value [1, 14]?
The value was 34.

And the “Range Shoot Heights” value [1, 14]?
The value was 1-23 cm.

And the “Embryo Rating D (Damaged)” value [1, 15]?
Its value is 15.

And the “Embryo Rating S (Susceptible)” value [1, 15]?
Its value is 31.

What about the “Embryo Rating T (Tolerant)” value [1, 15] of the same compound?
The value was 16.

And the “Range Shoot Heights” value [1, 15]?
Its value is 0-3.0 cm.

What about the “Ave. Shoot Height” value [1, 16] of the same compound?
Its value is 13.4 cm.

What about the “Embryo Rating D (Damaged)” value [1, 16] of the same compound?
The value was 8.

What about the “Embryo Rating S (Susceptible)” value [1, 16] of the same compound?
The value was 13.

What about the “Embryo Rating T (Tolerant)” value [1, 16] of the same compound?
The value was 59.

And the “Range Shoot Heights” value [1, 16]?
The value was 1-33 cm.

And the embryos that germinate ([1]; Fidel controls or M3 embryos, medium containing 10^−4 M)?
Its embryos that germinate is “None of the embryos”.

And the tolerance of embryos ([1]; M3 embryos, 10^−5 M in the medium, still considerable growth inhibition)?
Its tolerance of embryos is “somewhat tolerant”.

And the test-cross progeny killed [2]?
The test-cross progeny killed was 20.

And the “test-cross progeny that survive” value [2]?
Its value is 29.

And the “rates up to which FS2 and FS4 plant heights equal the untreated controls” value [3]?
The value was 500-1000 g/ha.

And the yield reduction [4]?
Its yield reduction is 35%.

Source: patent US7034208B1, “Ahas inhibiting herbicide resistant wheat and method for selection thereof” (BASF Aktiengellschaft, priority 1991, dated 2006)
